Series [1] can be described thus: Physicochemical input parameters of alectinib for PBPK model. From the text:
(§1) The PBPK model was constructed by combining alectinib-specific physicochemical information (molecular weight, logP, pKa, etc.), and the in vitro and in vivo study results obtained so far, with the physiological information on the target population in the SimCYP (registered trademark) software (Certara, Sheffield, UK) (Table 2).

The target in a further series is T1, CYP2C8 (Homo sapiens, UniProt P10632).
T1 sequence (P10632 1-490): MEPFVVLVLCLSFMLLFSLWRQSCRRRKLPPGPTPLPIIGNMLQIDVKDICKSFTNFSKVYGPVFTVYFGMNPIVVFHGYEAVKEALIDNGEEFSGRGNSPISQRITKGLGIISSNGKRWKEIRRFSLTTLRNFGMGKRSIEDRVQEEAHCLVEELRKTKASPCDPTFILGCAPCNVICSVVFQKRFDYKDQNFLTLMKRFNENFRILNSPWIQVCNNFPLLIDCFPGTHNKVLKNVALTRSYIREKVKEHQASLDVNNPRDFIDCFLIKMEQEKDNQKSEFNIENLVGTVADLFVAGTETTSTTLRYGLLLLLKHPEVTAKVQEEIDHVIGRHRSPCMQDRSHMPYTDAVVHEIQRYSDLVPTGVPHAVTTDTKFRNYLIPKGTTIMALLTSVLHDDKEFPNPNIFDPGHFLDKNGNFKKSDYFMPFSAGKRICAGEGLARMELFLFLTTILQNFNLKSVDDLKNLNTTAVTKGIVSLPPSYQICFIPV
Put plainly: Competitive CYP2C8 inhibition. As to conditions: PBPK input. It counts as biochemical.
Source text: as §1

The next series has as its system CYP2J2. Put plainly: Intrinsic clearance assigned to CYP2J2. It counts as in vitro ADME. As to conditions: CYP2J2 arbitrarily assigned, true enzyme not known.
Source text: as §1

In series [2] the target is T2, CYP3A4 (Homo sapiens, UniProt P08684). Put plainly: Mechanism-based CYP3A4 inhibition. The format is biochemical. To be noted: PBPK input; read-out: Mechanism-based inhibitor CYP3A4 inhibition Ki.
T2 sequence (P08684 whole entry): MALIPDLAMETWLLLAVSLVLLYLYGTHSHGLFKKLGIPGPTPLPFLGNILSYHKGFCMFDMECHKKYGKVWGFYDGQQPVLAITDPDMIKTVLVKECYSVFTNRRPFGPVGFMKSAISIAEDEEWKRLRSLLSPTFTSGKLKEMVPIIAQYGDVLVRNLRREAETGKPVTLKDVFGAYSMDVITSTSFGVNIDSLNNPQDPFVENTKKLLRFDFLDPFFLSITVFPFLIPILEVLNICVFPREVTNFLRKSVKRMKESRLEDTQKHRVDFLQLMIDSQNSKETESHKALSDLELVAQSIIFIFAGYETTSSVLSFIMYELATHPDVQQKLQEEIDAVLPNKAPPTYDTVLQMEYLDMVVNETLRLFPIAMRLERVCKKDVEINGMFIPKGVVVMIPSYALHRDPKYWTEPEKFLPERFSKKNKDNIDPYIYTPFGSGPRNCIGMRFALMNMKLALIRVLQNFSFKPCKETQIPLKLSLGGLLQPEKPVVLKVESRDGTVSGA
Source text: as §1

Series [3] can be described thus: Blood-to-plasma ratio and free fractions (PBPK input). The format is in vitro ADME.
Source text: as §1

A short description of series [4]: Vss after intravenous administration in healthy subjects (Morcos et al.). To be noted: human, in vivo, 50 μg, 475 L normalized with 74.8 kg, read-out: Actual Vss.
For series [5], the target named is T2, CYP3A4. Put plainly: Intrinsic clearance by CYP3A4. The format is in vitro ADME.
Source text: For pediatric PK prediction, especially for children under the age of 2 years, the need to consider developmental changes in the expression of drug-metabolizing enzymes and the like, in addition to the changes in body size associated with growth, has been reported (C Wagner, P Zhao, Y Pan, V Hsu, J Grillo, S M Huang, V Sinha. Application of Physiologically Based Pharmacokinetic (PBPK) Modeling to Support Dose Selection: Report of an FDA Public Workshop on PBPK. CPT Pharmacometrics Syst Pharmacol. 2015 April; 4(4): 226-30).
as §1
To predict pediatric PK, the physiological information on Japanese adults was replaced with that on Japanese children. […] The inter-individual variability in blood concentration on this simulation was calculated based on Japanese demographic data (Japanese pediatric demographic data source from Japanese Ministry of Health, Labour, and Welfare. Available from: […]

A short description of series [6]: Absorption parameters fitted to clinical PK profiles in Japanese adult patients (JP28927). It counts as in vivo.
Source text: It was then optimized using clinical trial results in Japanese adults as parameters related to the absorption process were incorporated into the model.
Series [7] is described as follows: Intrinsic clearance, other HLM. It counts as in vitro ADME. As to conditions: human, human liver microsomes; PBPK input; read-out: CLint, HLMother.
Source text: as §1
A general note: Microsomes from liver hold many membrane-bound enzymes, among them those of drug oxidation.

For series [8], the system named is CYP3A4. Nature of the series: CYP3A4 induction. It counts as in vitro ADME. To be noted: PBPK input.
Source text: as §1

For series [9], the system named is recurrent/refractory childhood cancers. As to conditions: IMT with ALK fusion gene, ALCL, neuroblastoma, other malignant solid tumors; cited from earlier work.
Where [10] appears, read: fitted, multiple p.o. with standard meal, 150 mg capsule, Japanese adult patients.

As a reminder, the logP is a log measure of how a compound divides between an organic and an aqueous phase. The low end stands for a more hydrophilic compound, the high end for a more lipophilic compound. As to `CCc1cc2c(cc1N1CCC(N3CCOCC3)CC1)C(C)(C)c1[nH]c3cc(C#N)ccc3c1C2=O` [alectinib, 9-ethyl-6,6-dimethyl-8-(4-morpholin-4-yl-piperidin-1-yl)-11-oxo-6,11-dihydro-5H-benzo[b]carbazole-3-carbonitrile], the logP in [1] was found to be 1.96. Also, the “pKa 1” value in series [1] (monoprotic base) turned out to be 7.05. The compound also returned a Ki at CYP2C8 of 0.147 µM. Moreover, the “CLint, CYP2J2” value with CYP2J2 is recorded as 285 μL/min/pmol of μL/min/pmol of isoform. The Ki on CYP3A4 [2] was found to be 8.29 µM. In [3], the fuGut is 0.01. Besides, the Vd in [4] was 6.35 L/kg. Moreover, at CYP3A4 [5], the “Contribution of CYP3A4 to hepatic metabolic clearance” value was “about 40%”. Also, the “CLint, CYP3A4” value at CYP3A4 [5] (PBPK input) is listed as 9.98 μL/min/pmol of μL/min/pmol of isoform. In series [6] (first-order absorption model (assumed)), the QGUT amounted to 8.49 L/h. In series [6] (setting [10]), this compound registered a Fa of 0.48, a Lag time of 2.92 h and a ka of 0.22 h⁻¹. Further, the microsomal CLint in series [7] is 1710 µL/min/mg. In addition, the “CYP3A4 induction Indslope” value with CYP3A4 [8] is 3.52 µM⁻¹.
`C[C@@H](Oc1cc(-c2cnn(C3CCNCC3)c2)cnc1N)c1c(Cl)ccc(F)c1Cl` [crizotinib]: in series [9], the “Clinical efficacy in childhood cancers” value was “has clinical efficacy in these childhood cancers”.

The values are drawn from patent US20240115578A1, “DRUG COMPOSITION FOR TREATING PEDIATRIC CANCERS” (CHUGAI SEIYAKU KABUSHIKI KAISHA, priority 2021, published 2024).
